Starred links: 1 amine or outer side, 2 acyl side, 3 side chain; linkers in the order of their positions; H or OH if unused. Non-standard residues stand in square brackets, D forms with d. Residues, ends and D or L forms follow the SMILES beside them. ξ: configuration not given here. *: point of attachment. Dolaproine = CO[C@@H]([C@@H]1CCCN1)[C@@H](C)C(=O)O; ξDil = CC[C@H](C)C([C@@H](CC(=O)[*:2])OC)N(C)[*:1]; PABC = O=C(OCc1ccc(N[*:1])cc1)[*:2]; Glutaryl = O=C(CCCC(=O)[*:2])[*:1]; X1 = C[C@@H](N*)[C@@H](O)c1ccccc1; Cit = NC(=O)NCCC[C@H](N)C(=O)O; NMeV = CN[C@H](C(=O)O)C(C)C
Columns and labels:
Format in all cases: physicochemical
[1] = Stress test of gvcMMAE at different drying temperature (HPLC); settings: for HPLC/area % gvcMMAE: dry
Protocol: 3.3.13. Stress Test of gvcMMAE at Different Drying Temperature (Table 22 and 23)
Stress test of gvcMMAE at different drying temperatures was done. According to the result listed below, gvcMMAE was stable at 40° C. for 3 days.

[2] = Solubility of gvcMMAE in different solvents (assay in mother liquor); settings: for Assay in ML (w/w %): 20-30° C., 0.5 h, free acid state
Source text: 3.3.6. Study the Solubility of gvcMMAE in Different Solvents (Table 10)
Solubility of gvcMMAE (free acid state) in different solvents (THF, DCM, MTBE, n-Heptane, iPrOAc, 1,4-dioxane) were investigated.

[3] = DVS test (hygroscopicity)
Protocol: (Uptake 3.6% water on sorption curve between 40% RH and 80% RH, at 25° C.).

[4] = Moisture absorption experiment at 60% RH; settings: 3 days
Protocol: 100 mg of gvcMMAE was stood at 60% RH condition to do a moisture absorption experiment. The solid state had no change (The weight changed to 103 mg) after 3 days.

## CC[C@H](C)C([C@@H](CC(=O)N1CCC[C@H]1[C@H](OC)[C@@H](C)C(=O)N[C@H](C)[C@@H](O)c1ccccc1)OC)N(C)C(=O)[C@@H](NC(=O)[C@H](C(C)C)N(C)C(=O)OCc1ccc(NC(=O)[C@H](CCCNC(N)=O)NC(=O)[C@@H](NC(=O)CCCC(=O)O)C(C)C)cc1)C(C)C (stereo partly drawn) [gvcMMAE, Glutaryl-Val-Cit-PAB-MMAE] (Glutaryl-V[Cit][PABC][NMeV]V[ξDil][Dolaproine]-X1)
[1]; 20° C., 3 days
  HPLC/area % gvcMMAE: 98.62 area %
[1]; 30° C., 3 days
  HPLC/area % gvcMMAE: 98.65 area %
[1]; 40° C. for 3 days
  Stability at drying temperature (in words): stable
[1]; 40° C., 3 days
  HPLC/area % gvcMMAE: 98.61 area %
[1]; 50° C., 3 days
  HPLC/area % gvcMMAE: 98.52 area %
[1]; before stress test
  HPLC/area % gvcMMAE: 98.54 area %
[2]; 1,4-dioxane 20 v
  Assay in ML (w/w %): 0.22 w/w %
[2]; DCM 20 v
  Assay in ML (w/w %): 0.00 w/w %
[2]; MTBE 20 v
  Assay in ML (w/w %): 0.00 w/w %
[2]; N-heptane 20 v
  Assay in ML (w/w %): 0.00 w/w %
[2]; THF 20 v
  Assay in ML (w/w %): 0.47 w/w %
[2]; THF, DCM, MTBE, n-Heptane, iPrOAc, 1,4-dioxane
  Solubility in solvents (in words): insoluble in most solvents
[2]; iPrOAc 20 v
  Assay in ML (w/w %): 0.00 w/w %
[3]; 80% RH at 25° C.
  Hygroscopicity (DVS): hygroscopic
[3]; between 40% RH and 80% RH, at 25° C.
  Water uptake on sorption curve: 3.6%
[4]; 100 mg
  Solid state after moisture absorption: no change
[4]; starting from 100 mg
  Weight after moisture absorption: 103 mg
